Where a SMILES comes first, the peptide text is derived from it.
What was measured:
HeLa [1] = experiment: Cellular uptake in human HeLa cell vesicular compartments at 50 uM after 60 mins using Hoechst H33342 dye by fluorescence microscopy analysis; format: ADME, cell-based; conditions: 1 h
MCF7 [2] = experiment: Cellular uptake in human MCF7 cell vesicular compartments at 50 uM after 60 mins using Hoechst H33342 dye by fluorescence microscopy analysis; format: ADME, cell-based; conditions: mcf7, 1 h
HT-29 [3] = experiment: Cellular uptake in human HT-29 cell vesicular compartments at 25 uM after 60 mins using Hoechst H33342 dye by fluorescence microscopy analysis; format: ADME, cell-based; conditions: ht-29, 1 h
HeLa [4] = experiment: Cellular uptake in human HeLa cells at 25 uM after 60 mins by flow cytometry; format: ADME, cell-based; conditions: 1 h
MCF7 [5] = experiment: Cellular uptake in human MCF7 cells at 25 uM after 60 mins by flow cytometry; format: ADME, cell-based; conditions: mcf7, 1 h
HT-29 [6] = experiment: Cellular uptake in human HT-29 cells at 25 uM after 60 mins by flow cytometry; format: ADME, cell-based; conditions: ht-29, 1 h
[7] = target: Serine/threonine-protein kinase PLK1 (Homo sapiens, UniProt P53350); experiment: Binding affinity to human polo-box domain of PLK1 after 1 hr by fluorescence polarization-based assay
FaDu = experiment: Cellular uptake in human FADU cells assessed per mg of protein; format: ADME, cell-based
HT-29 [8] = experiment: Cellular uptake in human HT-29 cells assessed per mg of protein; format: ADME, cell-based
MCF7 [9] = experiment: Cellular uptake in human MCF7 cells at 25 uM after 60 mins by flow cytometry relative to cellular uptake in human HeLa cells; format: ADME, cell-based; conditions: mcf7, 1 h
HT-29 [10] = experiment: Cellular uptake in human HT-29 cells at 25 uM after 60 mins by flow cytometry relative to cellular uptake in human HeLa cells; format: ADME, cell-based; conditions: ht-29, 1 h
MCF7 [11] = experiment: Toxicity in human MCF7 cells at up to 100 uM after 24 hrs; format: cell-based; conditions: mcf7, 24 h
HT-29 [12] = experiment: Toxicity in human HT-29 cells at up to 100 uM after 24 hrs; format: cell-based; conditions: ht-29, 24 h
HeLa [13] = experiment: Toxicity in human HeLa cells at up to 100 uM after 24 hrs; format: cell-based
MCF7 [14] = experiment: Cellular uptake in human MCF7 cell nucleus at 50 uM after 60 mins using Hoechst H33342 dye by fluorescence microscopy analysis; format: ADME, cell-based; conditions: mcf7, 1 h

Serine/threonine-protein kinase PLK1, sequence (P53350 whole entry, the tested form may be a part): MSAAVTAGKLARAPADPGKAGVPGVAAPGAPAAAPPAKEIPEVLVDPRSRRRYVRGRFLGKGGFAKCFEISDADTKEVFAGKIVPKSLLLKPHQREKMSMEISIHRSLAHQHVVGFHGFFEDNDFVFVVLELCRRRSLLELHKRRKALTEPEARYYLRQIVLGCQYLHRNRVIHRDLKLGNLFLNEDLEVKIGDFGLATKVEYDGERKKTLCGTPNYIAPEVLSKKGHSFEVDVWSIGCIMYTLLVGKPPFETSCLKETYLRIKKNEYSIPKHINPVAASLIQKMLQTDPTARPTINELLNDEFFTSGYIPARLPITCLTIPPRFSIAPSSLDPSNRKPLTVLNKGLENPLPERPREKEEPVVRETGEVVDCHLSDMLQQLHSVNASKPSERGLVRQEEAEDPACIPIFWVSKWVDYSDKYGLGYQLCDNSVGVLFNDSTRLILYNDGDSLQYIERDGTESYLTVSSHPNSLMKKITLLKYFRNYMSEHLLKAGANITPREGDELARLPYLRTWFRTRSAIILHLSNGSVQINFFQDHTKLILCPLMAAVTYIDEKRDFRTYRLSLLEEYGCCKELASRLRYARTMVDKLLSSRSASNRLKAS

SMILES	Drug uptake (HeLa [1])	Drug uptake (MCF7 [2])	Drug uptake (HT-29 [3])	Drug uptake (HeLa [4])	Drug uptake (MCF7 [5])	Drug uptake (HT-29 [6])	Kd [7]	Drug uptake (FaDu)	Drug uptake (HT-29 [8])	Drug uptake (MCF7 [9])	Drug uptake (HT-29 [10])	Activity (MCF7 [11])	Activity (HT-29 [12])	Activity (HeLa [13])	Drug uptake (MCF7 [14])
CSCC[C@H](NC(=O)c1ccc2c(c1)C1(OC2=O)c2ccc(O)cc2Oc2cc(O)ccc21)C(=O)N[C@@H](CCC(N)=O)C(=O)N[C@@H](CO)C(=O)N[C@H](C(=O)N1CCC[C@H]1C(=O)N[C@@H](CC(C)C)C(=O)O)[C@@H](C)OP(=O)(O)O	Not Active	Not Active	Not Active	Not Active	Not Active	Active	93 nM								
CSCC[C@H](NC(=O)c1ccc([18F])cc1)C(=O)N[C@@H](CCC(N)=O)C(=O)N[C@@H](CO)C(=O)N[C@H](C(=O)N1CCC[C@H]1C(=O)N[C@@H](CC(C)C)C(=O)O)[C@@H](C)OP(=O)(O)O								< 1 %ID	< 1 %ID						
CC[C@H](C)[C@H](NC(=O)[C@H](CCCCN)NC(=O)[C@H](CC(N)=O)NC(=O)[C@H](CCCN=C(N)N)NC(=O)[C@H](Cc1ccccc1)NC(=O)[C@H](CCCCN)NC(=O)[C@H](CCCN=C(N)N)NC(=O)[C@H](CC(C)C)NC(=O)[C@H](CCCN=C(N)N)NC(=O)[C@H](CCCCN)NC(=O)[C@H](CCCN=C(N)N)NC(=O)[C@H](CC(C)C)NC(=O)CNC(=O)[C@H](CC(C)C)NC(=O)[C@@H]1CCCN1C(=O)[C@@H](NC(=O)[C@H](CO)NC(=O)[C@H](CCC(N)=O)NC(=O)[C@H](CCSC)NC(=O)c1ccc2c(c1)C1(OC2=O)c2ccc(O)cc2Oc2cc(O)ccc21)[C@@H](C)OP(=O)(O)O)C(=O)N[C@@H](CCCCN)C(=O)N[C@@H](CCC(=O)O)C(=O)N[C@@H](CCCCN)C(N)=O (HELM PEPTIDE1{[O=C1OC2(c3ccc(O)cc3Oc3cc(O)ccc32)c2cc(C(=O)[*:2])ccc21].M.Q.S.[C[C@@H](OP(=O)(O)O)[C@H](N[*:1])C(=O)[*:2]].P.L.G.L.R.K.R.L.R.K.F.R.N.K.I.K.E.K.[am]}$$$$V2.0)	Active	Active	Active	Active	Active	Active	256 nM			15%	15%	Non-toxic	Non-toxic	Non-toxic	
CC[C@H](C)[C@H](NC(=O)[C@H](C)NC(=O)[C@@H](NC(=O)[C@H](CCC(N)=O)NC(=O)[C@@H]1CCCN1C(=O)[C@H](Cc1ccccc1)NC(=O)[C@@H](NC(=O)[C@H](Cc1cnc[nH]1)NC(=O)[C@H](Cc1ccccc1)NC(=O)[C@H](CCCCNC(=O)[C@H](C)NC(=O)[C@H](Cc1ccccc1)NC(=O)[C@H](CCCCN)NC(=O)[C@H](CCCNC(=N)N)NC(=O)[C@H](CCCCN)NC(=O)[C@H](CCCCN)NC(=O)[C@H](CCCCN)NC(=O)[C@@H]1CCCN1C(=O)[C@H](C)NC(=O)[C@H](CCCCN)NC(=O)[C@H](CCCNC(=N)N)NC(=O)[C@H](CCCCN)NC(=O)[C@@H](N)CCCCN)NC(=O)[C@H](CC(C)C)NC(=O)[C@@H]1CCCN1C(=O)[C@@H](NC(=O)[C@H](CO)NC(=O)[C@H](CCC(N)=O)NC(=O)[C@H](CCSC)NC(=O)c1ccc2c(c1)C1(OC2=O)c2ccc(O)cc2Oc2cc(O)ccc21)[C@@H](C)OP(=O)(O)O)[C@@H](C)O)[C@@H](C)O)C(=O)NCC(=O)N[C@H](C(=O)NCC(=O)N[C@@H](C)C(=O)N1CCC[C@H]1C(N)=O)C(C)C (HELM PEPTIDE1{[O=C1OC2(c3ccc(O)cc3Oc3cc(O)ccc32)c2cc(C(=O)[*:2])ccc21].M.Q.S.[C[C@@H](OP(=O)(O)O)[C@H](N[*:1])C(=O)[*:2]].P.L.K.F.H.T.F.P.Q.T.A.I.G.V.G.A.P.[am]}|PEPTIDE2{K.K.R.K.A.P.K.K.K.R.K.F.A}$PEPTIDE1,PEPTIDE2,8:R3-13:R2$$$V2.0)	Active	Active	Active	Active	Active	Active	326 nM			15%	15%	Non-toxic	Non-toxic	Non-toxic	Active

From ChEMBL document CHEMBL1806475, “Phosphopeptides with improved cellular uptake properties as ligands for the polo-box domain of polo-like kinase 1” (Bioorg Med Chem Lett, 2011)
